From patent US12129490B2, “Methods for generating hepatocytes and cholangiocytes from pluripotent stem cells” (UNIVERSITY HEALTH NETWORK, priority 2018, dated 2024)
Values joined by “and” are separate entries in the source; they are usually repeats but may differ in a detail not shown here. Identical values can stand only once.

Experiments:
smad2 = details: versus SB431 542; cited from earlier work
human and mouse ESC = details: cited from earlier work
Notch signaling = test: 3D gel culture of chimeric hepatoblast/OP9 aggregates in presence of GSI; assay type: cell-based, human; details: 3D collagen/Matrigel gel
Procedure: H9-derived day 25 hepatoblast were mixed (aggregated) with OP9 stromal cells at a ratio of 4:1, in low cluster culture dishes for 48 hours. The chimeric aggregates were embedded in a mixture of type 1 collagen (1.2 mg/ml) and Matrigel (40%) to establish a 3D gel culture. The cultures were maintained over 2 weeks in the media containing of HGF, EGF and TGFβ1 in the presence or absence of GSI.
FIG. 16C is an RT-qPCR based expression analyses of pooled structures that developed in the 3D gels. The cultures were harvested at day 44 and the cells analyzed for expression of genes indicative of the hepatocyte (ALB, AFP and CYP3A7) and cholangiocyte (CK19, Sox9 and CFTR) lineages.
To determine if the branching observed in the OP9 co-cultures is indicative of the initial stages of bile duct development, we next established a culture system to promote the growth of 3D cellular structures. With this approach, chimeric aggregates consisting of day 25 hESC-derived cells and OP9 stromal cells (GFP^+) were cultured in a media mixture consisting of 1.2 mg/ml collagen, 40% Matrigel and HGF, EGF and TGFβ1 (FIG. 23a). Within 2 weeks of culture in these conditions, the aggregates underwent dramatic morphological changes and formed either tubular structures, hollow cysts or a mixture of both (FIG. 16a,b). The cysts were the most abundant structures in these cultures (FIG. 16b). […] The cells in the ducts also expressed the Cystic fibrosis transmembrane conductance regulator (CFTR), a transmembrane channel that is first expressed in the adult biliary tract. As with ZO-1, the CFTR protein was detected predominantly on the apical side of the duct-like structure. Western blot analyses confirmed the presence of the protein in the population generated from the chimeric aggregates (FIG. 23D). […] The lack of hepatic markers, including ALB, AFP and CYP3A7 and the upregulation of expression the cholangiocyte markers CK19, SOX9 and CFTR in these structures was confirmed by RT-qPCR analyses (FIG. 16c). […]

Notch pathway = test: Hepatoblast co-culture with OP9 in presence of Notch antagonist GSI; assay type: cell-based, human
Procedure: RT-qPCR-based expression analysis of ALB and CK19 in the hepatoblast-derived cells following co-culture with OP9 in media supplemented with HGF (20 ng/ml), EGF (50 ng/ml), and TGFβ1 (5 ng/ml) in the presence or absence of the gamma-secretase inhibitor (GSI), an antagonist of the Notch pathway. Cells were harvested and analyzed at days 30, 33, and 36 of culture.
FIG. 15B is an RT-qPCR based expression analysis of the Notch target genes HES1, HES5 and HEY1 in hepatoblast-derived cells following culture with or without OP9. Cells were assayed at day 36 of culture. […] This value was set as 1.
To investigate the differentiation of cholangiocyte-like cells, H9-derived day 27 hepatic progenitors were co-cultured with OP 9 cells (Notch signaling donor) in the presence of HGF 20 ng/ml and EGF 50 ng/ml. The H9-derived day 27 hepatic progenitors were derived as in Example 1. When the hepatic progenitor cells received Notch signaling activation from OP-9 cells, the albumin positive cells were completely diminished and turned into CK19 positive cells with an organized branching appearance (FIG. 10a, b).
(§1) To investigate the effect of Notch signaling on cholangiocyte development, we co-cultured the hepatoblast population (day 25) with OP9 stromal cells that are known to express different Notch ligands including Jagged-1^4,5. […] To overcome this problem, we generated 3D aggregates from the day 25 monolayer cells and cultured them on the OP9 stromal cells.
(FIG. 22) Aggregates derived from both lines generated branched structures consisting of CK19^+ALB cells following co-culture with the OP9 stromal cells. As observed with the H9-derived populations, the downregulation of ALB expression and the development of these structures were NOTCH dependent events.

day 44 aggregates = test: CYP expression in day 44 aggregates with Wnt and MEK/Erk inhibition plus cAMP agonist; assay type: cell-based, human; details: together with cAMP, relative to adult liver
CYP1A2 = target: T1, CYP1A2 (Homo sapiens, UniProt P05177); test: CYP1A2 activity, phenacetin metabolism by HPLC
T1 sequence (P05177 1-516): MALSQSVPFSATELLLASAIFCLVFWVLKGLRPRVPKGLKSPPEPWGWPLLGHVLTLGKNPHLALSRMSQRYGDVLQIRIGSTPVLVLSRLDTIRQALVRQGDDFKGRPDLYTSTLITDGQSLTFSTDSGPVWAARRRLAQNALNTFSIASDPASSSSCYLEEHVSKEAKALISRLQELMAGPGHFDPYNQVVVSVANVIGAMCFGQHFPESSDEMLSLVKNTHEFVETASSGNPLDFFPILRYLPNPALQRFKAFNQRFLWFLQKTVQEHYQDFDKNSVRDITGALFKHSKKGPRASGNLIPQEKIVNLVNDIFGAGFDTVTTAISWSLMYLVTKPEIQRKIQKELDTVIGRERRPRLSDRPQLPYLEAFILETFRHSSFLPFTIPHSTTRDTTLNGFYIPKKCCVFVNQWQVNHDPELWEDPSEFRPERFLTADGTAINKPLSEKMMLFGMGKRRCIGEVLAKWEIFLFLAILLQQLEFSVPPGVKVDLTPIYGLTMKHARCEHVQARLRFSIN

[1] = test system: hPSC-derived hepatoblast aggregates; test: Growth factor addition to hepatoblast aggregates co-cultured on OP9 stroma; assay type: cell-based, human; details: for development of CK19+ clusters: OP9 co-culture
From the text: as §1

hepatic aggregates = test: Culture of hepatic aggregates at cAMP stage, HGF and OSM; assay type: cell-based, human
Procedure: The cell aggregates were cultured in HGF, Dex and OSM until day 32 at which point cAMP was added. […] In some experiments, HGF was also removed from the cultures when cAMP analog and/or cAMP agonist is added.

[2] = OP9 co-culture with HGF, EGF, TGFβ1

Cc1cccc(-c2nn(C(=S)Nc3ccccc3)cc2-c2ccnc3ccccc23)n1 [A83-01]
inhibition of smad2, relative potency (smad2): more potent

O=C1Nc2cc(Br)ccc2/C1=C1/Nc2ccccc2/C1=N\O [BIO, 6-bromo-Indirubin-3′-Oxime]
pluripotency of ESC (human and mouse ESC): maintain pluripotency

CC(C)C[C@H](NC(=O)[C@H](Cc1ccccc1)C[C@@H](O)[C@H](Cc1ccccc1)NC(=O)OC(C)(C)C)C(=O)N[C@@H](Cc1ccccc1)C(N)=O [GSI]
formation of duct-like structures and cysts (Notch signaling): prevented | expression of genes associated with cholangiocyte development (CK19, Sox9 and CFTR) (Notch signaling; day 44): decrease | expression of hepatocyte markers (ALB, AFP and CYP3A7) (Notch signaling; day 44): increase | albumin and CK19 positive cells (Notch pathway; 10 μM, H9-derived day 27 progenitors with OP9, HGF 20 ng/ml, EGF 50 ng/ml): albumin and CK19 positive cells were found | ALB expression (Notch pathway; [2]): blocked the downregulation | development of branched structures (Notch pathway; [2]): inhibited | proportion of CK19+ cells (Notch pathway; [2]): reduced | increase in expression of Notch targets HES1, HES5 and HEY1 (Notch pathway; nine days of culture on OP9): block

O=C(NOC[C@H](O)CO)c1ccc(F)c(F)c1Nc1ccc(I)cc1F [MEK/ErK inhibitor]
levels of CYP3A4 expression (day 44 aggregates): comparable to those found in the adult liver

Cc1c(OCC(F)(F)F)ccnc1C[S+]([O-])c1nc2ccccc2[nH]1 (stereo not drawn) [lansoprazole]
increase in CYP1A2 activity on induction (CYP1A2; 8-Br-cAMP-treated hESC-derived cells, induction 72 hours): 3.4 fold | inducibility of CYP1A2 activity (CYP1A2; H9-derived cells): inducible | inducibility of CYP1A2 activity (CYP1A2; cells not treated with 8-Br-cAMP): not inducible | inducible CYP1A2 activity (CYP1A2; iPSC-derived cells): not detectable | induction of CYP1A2 activity (CYP1A2; two independent primary hepatocyte samples): 18 fold and 9 fold

HGF: hepatocyte growth factor
development of CK19+ clusters [1]: little effect | survival of aggregates (hepatic aggregates; 10 ng/ml (reduced from 20 ng/ml) when cAMP was added): promote survival of the aggregates

OSM: Oncostatin M
induction of expression of Phase 1 CYP enzymes, in particular CYP 3A4 (hepatic aggregates; OSM maintained): inhibitory effect

TGFβ1: transforming growth factor beta 1
development of CK19+ clusters [1]: increase in the size | cholangiocyte branching ([1]; hepatoblasts co-cultured with OP9): promotes cholangiocyte branching
